For one data set, the system named is Leishmania infantum. Description: Antileishmanial activity against extracellular promastigotes form of Leishmania infantum MCAN/BR/98R619 after 24 hrs by neubauer chamber analysis. It is filed as functional, organism-based. To be noted: MCAN/BR/98R619, 24 h.
Data set [1] has as its system Leishmania amazonensis. Description: Antileishmanial activity against extracellular promastigotes form of Leishmania amazonensis MHOM/ BR/77/LTB0016 after 24 hrs by neubauer chamber analysis. To be noted: MHOM/ BR/77/LTB0016, 24 h. Type of data set: functional, organism-based.
The nature of data set [2]: Cytotoxicity against mouse peritoneal macrophages at IC50 for Leishmania amazonensis MHOM/ BR/77/LTB0016. Type of data set: cell-based. To be noted: peritoneal macrophage cell.
A further data set concerns Leishmania braziliensis. In words: Antileishmanial activity against extracellular promastigotes form of Leishmania braziliensis MCAN/BR/97/P142 after 24 hrs by neubauer chamber analysis. It is filed as functional, organism-based. To be noted: MCAN/BR/97/P142, 24 h.
In data set [3] the test system is Leishmania amazonensis. Description: Antileishmanial activity against Leishmania amazonensis MHOM/ BR/77/LTB0016 infected in CBA mouse assessed as development of cutaneous lesions at 100 umol/kg, po qd for 30 days administered 4 weeks post infection measured up to week 21. It is filed as functional, organism-based.
Data set [4] deals with Mus musculus. In words: Toxicity in CBA mouse infected with Leishmania amazonensis MHOM/ BR/77/LTB0016 assessed as change in neutrophils count at 100 umol/kg, po qd for 30 days administered 4 week post infection measured up to week 21. Type of data set: organism-based. The note with it: in vivo.
Data set [5] deals with Mus musculus. In words: Hepatotoxicity in CBA mouse infected with promastigotes form of Leishmania amazonensis MHOM/ BR/77/LTB0016 assessed as change in ALT level at 100 umol/kg, po qd for 30 days administered 4 week post infection measured up to week 21. It is filed as toxicity, organism-based. To be noted: in vivo.
Data set [6] relates to Mus musculus. In words: Toxicity in CBA mouse infected with Leishmania amazonensis MHOM/ BR/77/LTB0016 assessed as change in monocytes count at 100 umol/kg, po qd for 30 days administered 4 week post infection measured up to week 21. The note with it: in vivo. Type of data set: organism-based.
Data set [7] deals with Mus musculus. In words: Toxicity in CBA mouse infected with Leishmania amazonensis MHOM/ BR/77/LTB0016 assessed as weight loss at 29 to 100 umol/kg, po qd for 30 days administered 4 week post infection measured up to week 21. Type of data set: organism-based. The note with it: in vivo.
In data set [8] the test system is Mus musculus. Description: Renal toxicity in CBA mouse infected with promastigotes form of Leishmania amazonensis MHOM/ BR/77/LTB0016 assessed as change in creatinine level at 100 umol/kg, po qd for 30 days administered 4 week post infection measured up to week 21. It is filed as organism-based. To be noted: in vivo.
In data set [9] the test system is Mus musculus. In words: Hepatotoxicity in CBA mouse infected with promastigotes form of Leishmania amazonensis MHOM/ BR/77/LTB0016 assessed as change in AST level at 100 umol/kg, po qd for 30 days administered 4 week post infection measured up to week 21. Type of data set: toxicity, organism-based. To be noted: in vivo.
Data set [10] relates to Mus musculus. In words: Toxicity in CBA mouse infected with Leishmania amazonensis MHOM/ BR/77/LTB0016 assessed as change in leukocytes count at 100 umol/kg, po qd for 30 days administered 4 week post infection measured up to week 21. It is filed as organism-based. To be noted: in vivo.
Data set [11] relates to Mus musculus. Description: Toxicity in CBA mouse infected with Leishmania amazonensis MHOM/ BR/77/LTB0016 assessed as change in monocytes count at 50 mg/kg, po qd for 30 days administered 4 week post infection measured up to week 21. It is filed as organism-based. The arrangement: dose 50 mg/kg, route oral. The note with it: in vivo.
Data set [12] deals with Mus musculus. In words: Toxicity in CBA mouse infected with Leishmania amazonensis MHOM/ BR/77/LTB0016 assessed as change in leukocytes count at 50 mg/kg, po qd for 30 days administered 4 week post infection measured up to week 21. Type of data set: organism-based. The arrangement: dose 50 mg/kg, route oral. The note with it: in vivo.
Data set [13] relates to Leishmania amazonensis. In words: Antileishmanial activity against Leishmania amazonensis MHOM/ BR/77/LTB0016 infected in CBA mouse assessed as development of cutaneous lesions at 50 mg/kg, po qd for 30 days administered 4 weeks post infection measured up to week 21. It is filed as functional, organism-based. Also on record: dose 50 mg/kg.
Data set [14] deals with Mus musculus. In words: Toxicity in CBA mouse infected with Leishmania amazonensis MHOM/ BR/77/LTB0016 assessed as change in neutrophils count at 50 mg/kg, po qd for 30 days administered 4 week post infection measured up to week 21. The note with it: in vivo. The arrangement: dose 50 mg/kg, route oral. It is filed as organism-based.
Data set [15] relates to Mus musculus. In words: Toxicity in CBA mouse infected with Leishmania amazonensis MHOM/ BR/77/LTB0016 assessed as weight loss at 50 mg/kg, po qd for 30 days administered 4 week post infection measured up to week 21. The note with it: in vivo. It is filed as organism-based. The arrangement: dose 50 mg/kg, route oral.

As a reminder, the IC50 is the midpoint of a concentration-inhibition curve. High values mean a need for much substance, low ones inhibition by little substance.

Calls of active or inactive are those of the source. The rule behind the calls is not given here.

In the case of `Brc1ccc(-n2cc(C3=NCCN3)cn2)cc1`, the figures for the IC50 with Leishmania infantum and in the data set on Leishmania amazonensis [1] were greater than 500 µM and 30 µM, respectively. This compound also had an Activity in [2] of 3.52%.
As for `Fc1cccc(-n2cc(C3=NCCN3)cn2)c1`, the IC50 with Leishmania infantum was greater than 500 µM; in the data set with Leishmania amazonensis [1], 54 µM.
On to `c1ccc(-n2cc(C3=NCCN3)cn2)cc1`, for which the IC50 was greater than 500 µM with Leishmania infantum, greater than 500 µM in the data set on Leishmania braziliensis and 43 µM in the data set on Leishmania amazonensis [1]. In data set [2], this compound showed an Activity of 11.26%.
Regarding `Clc1cccc(-n2cc(C3=NCCN3)cn2)c1`, the IC50 was greater than 500 µM in the data set on Leishmania infantum, greater than 500 µM in the data set on Leishmania braziliensis and 60 µM in the data set with Leishmania amazonensis [1]. The Activity in [2] came out at 6.46%.
In the case of `Nc1c(C2=NCCN2)cnn1-c1cccc(Cl)c1`, the IC50 in the data set with Leishmania infantum, with Leishmania braziliensis and with Leishmania amazonensis [1] was greater than 500 µM each time. Also, in data set [2], the Activity amounted to 15.2%.
For `Nc1c(C2=NCCN2)cnn1-c1cccc(F)c1`, the IC50 in the data set with Leishmania infantum, in the data set with Leishmania braziliensis and with Leishmania amazonensis [1] was greater than 500 µM throughout.
For the compound `Clc1cc(Cl)cc(-n2cc(C3=NCCN3)cn2)c1`, the IC50 with Leishmania infantum is greater than 500 µM; with Leishmania braziliensis, 459 µM; in the data set on Leishmania amazonensis [1] it was greater than 500 µM. This compound also showed an Activity in data set [2] of 3.97%.
`Nc1c(C2=NCCN2)cnn1-c1cccc(Br)c1` came in with an IC50 with Leishmania amazonensis [1] of 31.3 µM.
Regarding `Nc1c(C2=NCCN2)cnn1-c1cc(Cl)cc(Cl)c1`, the IC50 in the data set on Leishmania infantum was greater than 500 µM; in the data set on Leishmania braziliensis it was 437 µM; with Leishmania amazonensis [1], 15.5 µM. Further, the result in the data set with Leishmania amazonensis [3] was Active. Moreover, the Activity entry in the data set on Mus musculus [4], with Mus musculus [5], in the data set on Mus musculus [6], in the data set with Mus musculus [7], in the data set with Mus musculus [8] and in the data set on Mus musculus [9] was “Non-toxic” throughout. Moreover, in the data set with Mus musculus [10], the Activity result is recorded as “Non-toxic”.
For `N=C(N)c1ccc(OCCCCCOc2ccc(C(=N)N)cc2)cc1` [PENTAMIDINE], the IC50 in the data set with Leishmania infantum was 100 µM; in the data set with Leishmania braziliensis it was 50 µM; in the data set on Leishmania amazonensis [1], 10 µM. This compound also yielded an Activity in [2] of 31%.
In the case of `CC(=O)N1CCN(c2ccc(OCC3COC(Cn4ccnc4)(c4ccc(Cl)cc4Cl)O3)cc2)CC1` (centres undefined) [KETOCONAZOLE], the Activity result in the data set on Mus musculus [11], in the data set on Mus musculus [12], in the data set with Mus musculus [14] and in the data set on Mus musculus [15] was “Non-toxic” in each case. Further, in the data set with Leishmania amazonensis [13], the outcome was Active.
Take `Nc1c(C2=NCCN2)cnn1-c1ccc(Br)cc1`: the IC50 in the data set on Leishmania infantum is greater than 500 µM; with Leishmania braziliensis it was 272 µM; in the data set on Leishmania amazonensis [1], greater than 500 µM.
`Nc1c(C2=NCCN2)cnn1-c1ccccc1`: the IC50 in the data set on Leishmania infantum is greater than 500 µM; in the data set with Leishmania braziliensis, 433 µM; in the data set with Leishmania amazonensis [1], 365 µM.
For `Clc1ccc(-n2cc(C3=NCCN3)cn2)cc1Cl`, the values for the IC50 in the data set with Leishmania infantum and with Leishmania amazonensis [1] were greater than 500 µM and 297 µM, respectively. The Activity in data set [2] turned out to be 5.32%.
For `Brc1cccc(-n2cc(C3=NCCN3)cn2)c1` the same measures were greater than 500 µM, greater than 500 µM and 11.98%.
`Nc1c(C2=NCCN2)cnn1-c1ccc(Cl)c(Cl)c1` displayed an IC50 in the data set on Leishmania amazonensis [1] of 381 µM. In data set [2], this compound had an Activity of 15.5%.

The values above are taken from ChEMBL document CHEMBL1921680, “Synthesis and antileishmanial evaluation of 1-aryl-4-(4,5-dihydro-1H-imidazol-2-yl)-1H-pyrazole derivatives” (Bioorg Med Chem Lett, 2011).
